Measurements taken from patent US12655116B2, “Substituted isophthalic acid diamides” (Bayer Aktiengesellschaft, priority 2020, dated 2026).

Tests used:
ABUTH [1] = experiment: Pre-emergence herbicidal action against ABUTH; format: in vivo, Abutilon theophrasti
Outline: (§1)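 Pre-emergence soil-surface spray of formulated compound (WP or EC; 600 to 800 l/ha; 0.2% wetting agent) over seeds sown in sandy loam. After 3 weeks under greenhouse conditions, damage is estimated visually in percent against untreated plants.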

AMARE [2] = experiment: Post-emergence herbicidal action against AMARE; format: in vivo, Amaranthus retroflexus; settings: 20 g/ha, visual assessment about 3 weeks after treatment, 100% = plants have died, 0% = like control plants
Outline: (§2)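 Spray, one-leaf stage: WP or EC compound in water, 600–800 l/ha, 0.2% wetting agent. Plants held about 3 weeks in the greenhouse, then visually rated in percent of kill compared with untreated controls.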

LOLRI [3] = experiment: Post-emergence herbicidal action against LOLRI; format: in vivo, Lolium rigidum; settings: dosage 20 g/ha
Method: Seeds of monocotyledonous and dicotyledonous weed and crop plants are laid out in sandy loam soil in wood-fiber pots, covered with soil and cultivated in a greenhouse under good growth conditions. 2 to 3 weeks after sowing, the test plants are treated at the one-leaf stage. The compounds of the invention, formulated in the form of wettable powders (WP) or as emulsion concentrates (EC), are then sprayed onto the green parts of the plants in the form of an aqueous suspension or emulsion at a water application rate equivalent to 600 to 800 l/ha, with addition of 0.2% wetting agent. After the test plants have been left to stand in the greenhouse under optimal growth conditions for about 3 weeks, the action of the preparations is assessed visually in comparison to untreated controls (herbicidal action in percent (%): 100% activity=the plants have died, 0% activity=like control plants). […] The tables below illustrate, in an illustrative manner, the post-emergence herbicidal action of the compounds of the invention, the herbicidal activity being stated in percent.

DIGSA [4] = experiment: Pre-emergence herbicidal action against DIGSA; format: in vivo, Digitaria sanguinalis
Outline: as §1

VERPE = experiment: Post-emergence herbicidal action against VERPE; format: in vivo, Veronica persica; settings: Veronica persica, 504 h, 20 g/ha
Outline: as §2

PHBPU [5] = experiment: Post-emergence herbicidal action against PHBPU; format: in vivo, Pharbitis purpurea; settings: dosage 20 g/ha
Outline: as §2

AVEFA [6] = experiment: Post-emergence herbicidal action against AVEFA; format: in vivo, Avena fatua; settings: 20 g/ha, visual assessment about 3 weeks after treatment, 100% = plants have died, 0% = like control plants
Outline: as §2

ALOMY [7] = experiment: Pre-emergence herbicidal action against ALOMY; format: in vivo, Alopecurus myosuroides; settings: 80 g/ha, pre-emergence, scored visually after 3 weeks vs untreated controls (100% = plants have died, 0% = like control plants)
Outline: as §1

VIOTR [8] = experiment: Pre-emergence herbicidal action against VIOTR; format: in vivo, Viola tricolor
Outline: as §1

SETVI [9] = experiment: Pre-emergence herbicidal action against SETVI; format: in vivo, Setaria viridis; settings: dosage 80 g/ha
Outline: as §1

DIGSA [10] = experiment: Post-emergence herbicidal action against DIGSA; format: in vivo, Digitaria sanguinalis
Outline: as §2

MATIN [11] = experiment: Pre-emergence herbicidal action against MATIN; format: in vivo, Matricaria inodora; settings: Tripleurospermum inodorum, 504 h
Outline: as §1

PHBPU [12] = experiment: Pre-emergence herbicidal action against PHBPU; format: in vivo, Pharbitis purpurea; settings: Ipomoea purpurea, 504 h, dosage 80 g/ha
Outline: as §1

AMARE [13] = experiment: Pre-emergence herbicidal action against AMARE; format: in vivo, Amaranthus retroflexus
Outline: as §1

ECHCG [14] = experiment: Post-emergence herbicidal action against ECHCG; format: in vivo, Echinochloa crus-galli
Outline: as §2

ECHCG [15] = experiment: Pre-emergence herbicidal action against ECHCG; format: in vivo, Echinochloa crus-galli
Outline: as §1

SETVI [16] = experiment: Post-emergence herbicidal action against SETVI; format: in vivo, Setaria viridis
Outline: as §2

AVEFA [17] = experiment: Pre-emergence herbicidal action against AVEFA; format: in vivo, Avena fatua; settings: Avena fatua, 504 h; 80 g/ha, pre-emergence
Outline: as §1

ALOMY [18] = experiment: Post-emergence herbicidal action against ALOMY; format: in vivo, Alopecurus myosuroides; settings: visual assessment about 3 weeks after treatment vs untreated controls
Outline: as §2

LOLRI [19] = experiment: Pre-emergence herbicidal action against LOLRI; format: in vivo, Lolium rigidum; settings: Lolium rigidum, 504 h, 80 g/ha
Outline: as §1

STEME [20] = experiment: Pre-emergence herbicidal action against STEME; format: in vivo, Stellaria media
Outline: as §1

STEME [21] = experiment: Post-emergence herbicidal action against STEME; format: in vivo, Stellaria media
Outline: as §2

VIOTR [22] = experiment: Post-emergence herbicidal action against VIOTR; format: in vivo, Viola tricolor
Outline: as §2

MATIN [23] = experiment: Post-emergence herbicidal action against MATIN; format: in vivo, Matricaria inodora; settings: dosage 20 g/ha
Outline: as §2

POLCO = experiment: Pre-emergence herbicidal action against POLCO; format: in vivo, Polygonum convolvulus; settings: dosage 80 g/ha
Outline: as §1

ABUTH [24] = experiment: Post-emergence herbicidal action against ABUTH; format: in vivo, Abutilon theophrasti; settings: visual assessment about 3 weeks after treatment vs untreated controls
Outline: as §2

[25] = 80 g/ha, scored visually after 3 weeks vs untreated controls (100% = plants have died, 0% = like control plants)

Question: With `Cn1nnnc1NC(=O)c1ccc(Br)c(C(=O)NCC(F)(F)F)c1Cl` [Example 1-181] as the compound, how does the pest or weed control at 80 g/ha (ABUTH [1]; Abutilon theophrasti, 504 h, 80 g/ha, scored visually after 3 weeks vs untreated controls (100% = plants have died, 0% = like control plants)) read?
Answer: The pest or weed control at 80 g/ha was 100%.

Question: What about the pest or weed control at 20 g/ha (ABUTH [1]; Abutilon theophrasti, 504 h, dosage 20 g/ha, scored visually after 3 weeks vs untreated controls, 100% = plants have died, 0% = like control plants, read-out: Pre-emergence action against ABUTH (herbicidal activity in percent)) of the same compound?
Answer: The pest or weed control at 20 g/ha was 90%.

Question: And the pest or weed control at 20 g/ha (AMARE [2]; Amaranthus retroflexus, 504 h)?
Answer: The pest or weed control at 20 g/ha was 100%.

Question: And the pest or weed control at 20 g/ha (LOLRI [3]; Lolium rigidum, 504 h)?
Answer: The pest or weed control at 20 g/ha was 80%.

Question: What about the pest or weed control at 20 g/ha (DIGSA [4]; Digitaria sanguinalis, 504 h, dosage 20 g/ha) of the same compound?
Answer: Its pest or weed control at 20 g/ha is 100%.

Question: And the pest or weed control at 80 g/ha (DIGSA [4]; Digitaria sanguinalis, 504 h, dosage 80 g/ha)?
Answer: The pest or weed control at 80 g/ha was 100%.

Question: What about the pest or weed control at 20 g/ha (VERPE) of the same compound?
Answer: Its pest or weed control at 20 g/ha is 90%.

Question: What about the pest or weed control at 20 g/ha (PHBPU [5]; Ipomoea purpurea, 504 h) of the same compound?
Answer: The pest or weed control at 20 g/ha was 90%.

Question: What about the pest or weed control at 20 g/ha (AVEFA [6]; Avena fatua, 504 h) of the same compound?
Answer: The pest or weed control at 20 g/ha was 90%.

Question: What about the pest or weed control at 80 g/ha (ALOMY [7]; Alopecurus myosuroides, 504 h) of the same compound?
Answer: Its pest or weed control at 80 g/ha is 100%.

Question: And the pest or weed control at 20 g/ha (VIOTR [8]; Viola tricolor, 504 h, dosage 20 g/ha)?
Answer: Its pest or weed control at 20 g/ha is 100%.

Question: What about the pest or weed control at 80 g/ha (VIOTR [8]; Viola tricolor, 504 h, dosage 80 g/ha) of the same compound?
Answer: Its pest or weed control at 80 g/ha is 100%.

Question: And the pest or weed control at 80 g/ha (SETVI [9]; Setaria viridis, 504 h)?
Answer: The pest or weed control at 80 g/ha was 100%.

Question: And the pest or weed control at 5 g/ha (DIGSA [10]; Digitaria sanguinalis, 504 h, 5 g/ha)?
Answer: The pest or weed control at 5 g/ha was 90%.

Question: And the pest or weed control at 20 g/ha (DIGSA [10]; Digitaria sanguinalis, 504 h, 20 g/ha)?
Answer: The pest or weed control at 20 g/ha was 90%.

Question: What about the pest or weed control at 20 g/ha (MATIN [11]; dosage 20 g/ha) of the same compound?
Answer: Its pest or weed control at 20 g/ha is 90%.

Question: What about the pest or weed control at 80 g/ha (MATIN [11]; dosage 80 g/ha) of the same compound?
Answer: The pest or weed control at 80 g/ha was 100%.

Question: And the pest or weed control at 80 g/ha (PHBPU [12])?
Answer: Its pest or weed control at 80 g/ha is 80%.

Question: And the pest or weed control at 20 g/ha (AMARE [13]; Amaranthus retroflexus, 504 h, 20 g/ha, scored visually after 3 weeks vs untreated controls, 100% = plants have died, 0% = like control plants)?
Answer: Its pest or weed control at 20 g/ha is 100%.

Question: And the pest or weed control at 80 g/ha (AMARE [13]; Amaranthus retroflexus, 504 h, 80 g/ha, scored visually after 3 weeks vs untreated controls, 100% = plants have died, 0% = like control plants)?
Answer: Its pest or weed control at 80 g/ha is 100%.

Question: And the pest or weed control at 5 g/ha (ECHCG [14]; Echinochloa crus-galli, 504 h, dosage 5 g/ha)?
Answer: Its pest or weed control at 5 g/ha is 80%.

Question: What about the pest or weed control at 20 g/ha (ECHCG [14]; Echinochloa crus-galli, 504 h, dosage 20 g/ha) of the same compound?
Answer: Its pest or weed control at 20 g/ha is 80%.

Question: And the pest or weed control at 80 g/ha (ECHCG [15]; Echinochloa crus-galli, 504 h, 80 g/ha)?
Answer: The pest or weed control at 80 g/ha was 100%.

Question: And the pest or weed control at 20 g/ha (SETVI [16]; Setaria viridis, 504 h, dosage 20 g/ha)?
Answer: The pest or weed control at 20 g/ha was 90%.

Question: And the pest or weed control at 80 g/ha (AVEFA [17])?
Answer: The pest or weed control at 80 g/ha was 80%.

Question: What about the pest or weed control at 5 g/ha (ALOMY [18]; Alopecurus myosuroides, 504 h, dosage 5 g/ha) of the same compound?
Answer: The pest or weed control at 5 g/ha was 80%.

Question: And the pest or weed control at 20 g/ha (ALOMY [18]; Alopecurus myosuroides, 504 h, dosage 20 g/ha)?
Answer: Its pest or weed control at 20 g/ha is 100%.

Question: What about the pest or weed control at 80 g/ha (LOLRI [19]) of the same compound?
Answer: The pest or weed control at 80 g/ha was 80%.

Question: What does the source list for `CCNC(=O)c1c(C(F)F)ccc(C(=O)Nc2nnco2)c1Cl` [Example 5-123]?
Answer: Pre-emergence action against ABUTH (herbicidal activity) (ABUTH [1]; [25]): 100%; Pre-emergence action against ABUTH (herbicidal activity in percent) (ABUTH [1]; dosage 20 g/ha, scored visually after 3 weeks vs untreated controls, 100% = plants have died, 0% = like control plants): 100%; Post-emergence action at 20 g/ha against AMARE in % (AMARE [2]): 90%; Post-emergence action against LOLRI in % (LOLRI [3]): 80%; Pre-emergence action against DIGSA in % (DIGSA [4]; dosage 20 g/ha): 100%; Pre-emergence action against DIGSA in % (DIGSA [4]; dosage 80 g/ha): 100%; Pre-emergence action against STEME in % (STEME [20]; dosage 20 g/ha): 90%; Pre-emergence action against STEME in % (STEME [20]; dosage 80 g/ha): 90%; Post-emergence action against STEME in % (STEME [21]; 20 g/ha): 90%; Post-emergence action against STEME in % (STEME [21]; dosage 5 g/ha): 90%; Post-emergence action against VIOTR in % (VIOTR [22]; 5 g/ha): 80%; Post-emergence action against VIOTR in % (VIOTR [22]; 20 g/ha): 90%; Post-emergence action against PHBPU in % (PHBPU [5]): 80%; Post-emergence action at 20 g/ha against AVEFA in % (AVEFA [6]): 80%; Pre-emergence action against ALOMY (herbicidal activity) (ALOMY [7]): 80%; Pre-emergence action against VIOTR in % (VIOTR [8]; dosage 20 g/ha): 90%; Pre-emergence action against VIOTR in % (VIOTR [8]; dosage 80 g/ha): 100%; Pre-emergence action against SETVI in % (SETVI [9]): 100%; Post-emergence action against DIGSA in % (DIGSA [10]; 5 g/ha): 90%; Post-emergence action against DIGSA (DIGSA [10]; 20 g/ha): 90%; Post-emergence action against MATIN in % (MATIN [23]): 80%; Pre-emergence action against POLCO in % (POLCO): 80%; Post-emergence action against ABUTH in % (ABUTH [24]; dosage 5 g/ha): 90%; Post-emergence action against ABUTH in % (ABUTH [24]; dosage 20 g/ha): 90%; Pre-emergence action against AMARE in % (AMARE [13]; 20 g/ha, scored visually after 3 weeks vs untreated controls, 100% = plants have died, 0% = like control plants): 100%; Pre-emergence action against AMARE in % (AMARE [13]; [25]): 100%; Post-emergence action against ECHCG in % (ECHCG [14]; dosage 5 g/ha): 90%; Post-emergence action against ECHCG in % (ECHCG [14]; dosage 20 g/ha): 90%; Pre-emergence action against ECHCG in % (ECHCG [15]; 20 g/ha): 90%; Pre-emergence action against ECHCG in % (ECHCG [15]; 80 g/ha): 100%; Post-emergence action against SETVI in % (SETVI [16]; dosage 5 g/ha): 80%; Post-emergence action against SETVI in % (SETVI [16]; dosage 20 g/ha): 80%; Post-emergence action against ALOMY in % (ALOMY [18]; dosage 20 g/ha): 80%
